Experimental data: PMC8391236, “Effect of Pterostilbene, a Natural Derivative of Resveratrol, in the Treatment of Colorectal Cancer through Top1/Tdp1-Mediated DNA Repair Pathway” (Cancers, 2021)

Experiments:
siRNA-Top1 CL187 cells = test: Cell viability of Top1-silenced cells; assay type: cell-based, Human; details: siRNA-Top1 CL187; CPT 0.5 μM, FM 25 μM
Method: (§1) PTE or RE were dissolved in DMSO and diluted with culture medium to 1–100 μM. The final concentration of DMSO was less than 0.1%, and 0.1% DMSO as negative control. […] Exponentially growing cells were seeded in 96-well plates (5 × 10^3 cells/well) for 12 h. Various drugs were added separately and incubated for 24, 48, and 72 h. Cell viability was determined by CCK-8 (Beyotime Biotechnology, Shanghai, China) assay.

siRNA-Tdp1 CL187 cells = test: Cell viability of Tdp1-silenced cells; assay type: cell-based, Human; details: siRNA-Tdp1 CL187, CPT 0.5 μM; for sensitivity / efficacy of positive controls: FM 25 μM
Method: as §1

Tdp1-over CL187 cells = test: Cell viability of Tdp1-overexpressing cells; assay type: cell-based, Human; details: Tdp1-over CL187; CPT 0.5 μM, FM 25 μM
Method: CL187 cells were cultured on 6-cm dishes at 37 °C for 24 h. The plasmid (2.5 μg) was diluted with 125 μL serum-free medium Opti-MEM, mixed gently, and incubated at room temperature for 5 min. Lipo 3000 (Invitrogen, Waltham, MA, USA) were diluted with 125 μL serum-free medium Opti-MEM, mixed and incubated for 5 min. Mixed the plasmid and Lipo 3000, incubated at room temperature for 20 min, the mixture was added to CL187 cells, the Tdp1 overexpressed plasmid were transfected into CL187 cells.
PTE or RE were dissolved in DMSO and diluted with culture medium to 1–100 μM. The final concentration of DMSO was less than 0.1%, and 0.1% DMSO as negative control. CPT, as Top1 inhibitor, was diluted to 0.5 μM [36, 37], and FM, as Tdp1 inhibitor was diluted to 25 μM [38]. Exponentially growing cells were seeded in 96-well plates (5 × 10^3 cells/well) for 12 h. […] Cell viability was determined by CCK-8 (Beyotime Biotechnology, Shanghai, China) assay. Cell viability and inhibition rate were calculated with the following formulae:Cell viability (%) = [OD450 (sample)/OD450 (control)] × 100(1) Inhibition rate (%) = […] − cell viability (%)(2)
The drug concentration required for inhibiting cell proliferation by 50% (IC50) was determined by interpolation from dose-response curves.

[1] = test system: orthotopic CL187 xenograft; test: Orthotopic CL187 xenograft model; assay type: in vivo, BABLc/nude mice
Method: (§2) The mice were anaesthetized with 10% chloral hydrate and fixed on the operating table. After the abdomen of the mice was disinfected with iodine, a small section of the large intestine was squeezed out of the surgical opening. The 0.1 mL (per mouse) CL187 cell suspension (1 × 10^7 /mL) was inoculated into the colon wall of nude mice. After the inoculation, the large intestine was placed into the mouse abdominal cavity. After the wound was sutured, the mice were put into cages until they naturally woke up. After 10 days of inoculation, the animals were randomly divided into 4 groups (6 mice per group). Vector control group was intraperitoneally injected with 5% DMSO and 95% saline containing 30% HP-β-CD (i.p.). The drug dosage was designed according to the results of the previous pharmacokinetic experiment. Experimental Group 1 was intraperitoneal injected (i.p.) with PTE 100 mg/kg, and experiment Group 2 was intragastric administrated (i.g.) with PTE 500 mg/kg, once a day. The bioavailability of PTE was the same in the animals in the above regimens. Positive control group was injected with irinotecan, 20 mg/kg, twice a week. During the experiment, the changes of body weight of nude mice were recorded. After 21 days, the nude mice were sacrificed, the tumor blocks were removed surgically, weighed, and recorded.
Tumor and organ tissues were paraffin-embedded and sectioned into […] after being fixed in 4% of paraformaldehyde solution for 24 h. The sections were deparaffinized and rehydrated before detection. For histological observation, tumor sections were stained with hematoxylin and eosin (HE), and then observed by an inverted microscopy (Olympus, Japan).
For immunohistochemistry analysis, the sections were treated with 3% hydrogen peroxide for 10 min to block endogenous peroxidase, and then incubated with Ki67 primary antibody for overnight at 4 °C. Subsequently, the sections were treated with secondary antibody at room temperature for 20 min. After being washed with PBS, the sections were incubated with DAB chromogenic solution for 10 min, followed by rewashing in PBS. The sections were counterstained with hematoxylin after DAB coloration. The antibody specificity was confirmed by negative control without primary antibody treatment. Immunopositive areas were observed by an inverted microscope (Olympus, Japan).

[2] = test system: subcutaneous CL187 xenograft; test: Subcutaneous CL187 xenograft model; assay type: in vivo, BABLc/nude mice
Method: CL187 cell suspension was collected at 1 × 10^6 /mL, and 0.1 mL cell was inoculated into the right inguinal region of nude mice. The tumor was no metastasis. The diameter of the transplanted tumor in nude mice was measured with a vernier caliper. After 16-day inoculation (the tumor grew to 90 mm^3), the animals were randomly divided into 7 groups (6 mice per group). The drug was administered by intraperitoneal injection. Blank control group was injected with saline. […] According to the preliminary test results. […] Positive control group was injected with irinotecan (20 mg/kg) twice a week, During the experiment, the changes of body weight of nude mice were recorded, and the anti-tumor effect of the samples was dynamically investigated by measuring tumor diameter. On Day 31 post treatment, the nude mice were sacrificed, and the tumor blocks were removed surgically, weighed, and recorded.

[3] = test system: liver, kidney, lung, and paracancerous colon tissues; test: HE staining of organs of orthotopic xenograft mice; assay type: in vivo; details: orthotopic xenograft nude mice
Method: as §2, with “and recorded. Tumor and organ tissues were paraffin-embedded and sectioned into […] after being fixed in 4% of paraformaldehyde solution for 24 h. The sections were deparaffinized and rehydrated before detection. For histological observation, tumor sections were stained with hematoxylin and eosin (HE), and then observed by an inverted microscopy (Olympus, Japan).” for “and recorded.”

Top1 in CL187 cells [4] = biological target: Top1 in CL187 cells (Homo sapiens, UniProt P11387); test: Intracellular Top1 enzyme activity assay; assay type: cell-based; parameters: endogenous in cells; host or cells: CL187 cells (nuclear, mitochondrial and cytoplasmic extracts); details: CL187 cells treated 6 h; CPT at 50 μM
Method: (§3) CL187 cells were treated with different concentrations of drugs for 6 h. The supernatant was discarded, and the cells were collected. The extracts of cytoplasm, mitochondria, and nucleus were obtained by the same method as described in Section 2.4.7. The protein concentration of each extract was detected by BCA kit. Enzyme activity reaction was carried out by using 125 ng super helical DNA (pHOT-1) and cell extract. The protein concentration of the extract was guaranteed to be the same in each group. The mixture solution of the pHOT-1 and the cell extract was added into the reaction buffer and incubated for 30 min at 37 °C. The reaction was terminated with loading buffer. The agarose gel electrophoresis was performed, and the images were collected.

Top1 = biological target: T1, Top1 (Homo sapiens, UniProt P11387); test: Direct Top1 enzyme activity (DNA relaxation) assay; assay type: biochemical; details: gel electrophoresis
T1 construct: purchased TopoGEN, Buena Vista, CO, USA
T1 sequence (P11387 1-765): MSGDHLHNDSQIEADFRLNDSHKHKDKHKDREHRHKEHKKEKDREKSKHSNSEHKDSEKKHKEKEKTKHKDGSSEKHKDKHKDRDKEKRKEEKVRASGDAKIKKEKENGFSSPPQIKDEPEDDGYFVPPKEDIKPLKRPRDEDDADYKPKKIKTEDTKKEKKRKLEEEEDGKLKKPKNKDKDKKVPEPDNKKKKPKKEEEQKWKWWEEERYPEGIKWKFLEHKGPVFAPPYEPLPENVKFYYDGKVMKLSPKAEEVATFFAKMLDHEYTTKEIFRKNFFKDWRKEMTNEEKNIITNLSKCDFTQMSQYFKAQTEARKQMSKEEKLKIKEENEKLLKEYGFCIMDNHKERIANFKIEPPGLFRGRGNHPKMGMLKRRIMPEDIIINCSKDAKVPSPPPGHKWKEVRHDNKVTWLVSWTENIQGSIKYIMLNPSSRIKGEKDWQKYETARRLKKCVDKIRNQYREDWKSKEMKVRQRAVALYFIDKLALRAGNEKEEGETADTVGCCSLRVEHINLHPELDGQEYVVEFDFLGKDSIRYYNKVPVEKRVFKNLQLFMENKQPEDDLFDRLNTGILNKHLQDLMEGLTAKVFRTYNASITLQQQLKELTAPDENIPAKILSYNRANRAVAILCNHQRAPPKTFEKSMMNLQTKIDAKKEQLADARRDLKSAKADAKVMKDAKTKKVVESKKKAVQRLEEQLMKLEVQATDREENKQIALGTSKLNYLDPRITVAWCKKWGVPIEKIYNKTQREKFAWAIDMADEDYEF
Method: Different concentrations of the drug solution were prepared. The solvent was used as negative control group, and CPT (50 μM) was used as the positive control group. Each sample included 2 units of Top1 (TopoGEN, Buena Vista, CO, USA) and 250 ng super helical DNA (pHOT-1, TopoGEN, Buena Vista, CO, USA). The samples were incubated for 30 min at 37 °C, and then the reaction was stopped with SDS. After digestion with proteinase K (50 μg/mL, 60 min at 37 °C), samples were separated through electrophoresis (1% agarose gel). The electrophoresis was conducted at 180 V constant pressure for 20 min. The gel was immersed in the dye without EB for 30 min, and the images were collected by gel imaging system (Tanon-1600B, Shanghai, China).

Top1 in CL187 cells [5] = test: Intracellular Top1 enzyme activity assay; assay type: cell-based, Human; details: CL187 cells treated 6 h
Method: as §3

[6] = 20 mg/kg-i.p. twice a week, 21 days

SMILES | inhibitory effect on cell proliferation of positive controls (siRNA-Top1 CL187 cells) | sensitivity / efficacy of positive controls (siRNA-Tdp1 CL187 cells) | sensitivity / response of cells to positive controls (Tdp1-over CL187 cells) | degree of tumor necrosis (HE) ([1]; 20 mg/kg-i.p.) | Tumor Inhibitory Rate [1, 6] [%] | Tumor Weight [1, 6] [g] | Ki67 labeling rate in tumor tissue ([1]; 20 mg/kg-i.p., vector control 46.53±3.86%) [%] | Tumor Weight ([2]; 20 mg/kg i.p. twice a week, Day 31) [g] | adverse reactions during the entire treatment process ([2]; subcutaneous CL187 xenograft nude mice, CPT-11 20 mg/kg, PTE 25-200 mg/kg i.p.) | effect on lung inflammation (HE sections) [3] | Top1 enzyme activity in the nucleus (Top1 in CL187 cells [4]) | inhibition at 0.5 µM (siRNA-Tdp1 CL187 cells; Homo sapiens, read-out: cell inhibition rate) [%] | inhibition of Top1 enzyme activity (SC DNA relaxation) (Top1; 30 min incubation, CPT at 50 uM) | concentration exhibiting the same inhibitory effect on Top1 enzyme activity (Top1; relaxation of supercoiled pHOT-1 DNA, 30 min) [µM] | concentration with the same inhibitory effect on intracellular Top1 enzyme activity (Top1 in CL187 cells [5]; cell extracts + SC DNA) [µM] | Top1 enzyme activity in mitochondria (Top1 in CL187 cells [5]; CPT at 50 μM)
Cl.Cl.N=C(N)c1ccc(-c2ccc(-c3ccc(C(=N)N)cc3)o2)cc1 [FM, Furamidine dihydrochloride, reference compound] | significantly enhancing the inhibitory effect on the cells | failed to exert its efficacy | good response |  |  |  |  |  |  |  |  |  |  |  |  | 
CCc1c2c(nc3ccc(OC(=O)N4CCC(N5CCCCC5)CC4)cc13)-c1cc3c(c(=O)n1C2)COC(=O)[C@]3(O)CC [CPT-11, irinotecan] |  |  |  | +++ (+++ denotes the ratio between 1/2 and 3/4) | 62.91 ± 11.78 | 0.81 ± 0.20 | 22.46 ± 6.78 | 1.18 ± 0.12 | severe diarrhea, lassitude, and other adverse reactions | could aggravate the inflammatory response |  |  |  |  |  | 
CC[C@@]1(O)C(=O)OCc2c1cc1n(c2=O)Cc2cc3ccccc3nc2-1 [CPT, camptothecin, reference compound] | hardly exhibited inhibitory effect on cell proliferation | significantly increased | significantly reduced |  |  |  |  |  |  |  | significantly inhibited | ~90 | could inhibit Top1 enzyme activity | 50 | 50 | significantly inhibited
